{"source": "patent US20250304952A1", "about": "“DNA ELEMENT RESPONSIVE TO EXTRACHROMOSOMAL DNA IN CANCER CELLS” (The Board of Trustees of the Leland Stanford Junior …, priority 2021, published 2025)", "assay_type_in_all_cases": "cell-based, human", "key": {"[1]": {"test_system": "MYC mRNA in COLO320-DM cells", "test": "MYC RNA measured by RT-qPCR in COLO320-DM", "conditions": "500 nM, 6 hours", "experimental": "(§1) Cells were then treated for 6 hours with 500 nM JQ1 in DMSO unless otherwise indicated (Sigma-Aldrich SML1524) or an equivalent volume of DMSO.\n(§2) RNA was extracted using RNeasy Plus mini Kit (QIAGEN 74136). Purified RNA was quantified by Nanodrop (Thermo Fisher). For RT-qPCR, 50 ng of RNA, 1× Brilliant II qRT-PCR mastermix with 1 μL RT/RNase block (Agilent 600825), and 200 nM forward and reverse primer were used. Each Ct value was measured using Lightcycler 480 (Roche) and each mean dCt was averaged from duplicate qRT-PCR reaction and performed in biological triplicate. Relative MYC RNA level (RT-qPCR primers MYC_exon3_fw and MYC_exon3_rv) was calculated by ddCt method compared to 18S and GAPDH controls (RT-qPCR primers GAPDH_fw, GAPDH_rv, 18S_fw, 18S_rv). P values were calculated using a Student's t-test by comparing the relative fold change of biological triplicates.\n(§3) Approximately 0.6×10^6 COLO320-DM or COLO-320-HSR cells were plated in 6 well plates and cultured under standard conditions for 24 hours. Cells were then treated for 6 hours with one of the following: 500 nM JQ1 (Sigma-Aldrich SML1524), 500 nM MS645 (Sigma Aldrich SML2549), 1 μM THZ-1 (Selleck chemicals S7549), 20 μM SGC-SCP30 (Selleck chemicals S7256), 10 μM OICR-9429 (Selleck chemicals S7833), 50 μM MI-3 (Selleck chemicals S7619), 2 μM trichostatin A (Selleck chemicals S1045), or DMSO. […]"}, "[2]": {"test_system": "COLO320-DM cells and COLO320-HSR cells", "test": "JQ1 dose titration: cell viability (CellTiterGlo) and cell proliferation", "conditions": "viability 48 hours, proliferation over 72 hours", "experimental": "Cells were plated in 96-well plates at 25,000 cells/well in triplicate and incubated either with JQ1 (Sigma-Aldrich SML1524) at the indicated concentrations or an equivalent volume of DMSO for 48 hours. Cell viability was measured using the CellTiterGlo assay kit (Promega G7572) in triplicate with luminescence measured on SpectraMax M5 plate reader with an integration time of 1 second per well. Luminescence was normalized to the DMSO treated controls and p values calculated using a Student's t-test comparing biological triplicates.\nCells were plated in 96-well plates at 10,000 cells/well and incubated either with JQ1 (Sigma-Aldrich SML1524) at the indicated concentrations or an equivalent volume of DMSO. Every 24 hours, cells were harvested and counted on Countess 3 Automated Cell Counter (Thermo Fisher) with Trypan Blue used to assess cell viability. P values were calculated using a Student's t-test comparing biological triplicates."}, "[3]": {"test_system": "MYC transcription from ecDNA in COLO320-DM", "test": "MYC transcription probability by joint nascent RNA and DNA FISH", "conditions": "500 nM JQ1, 6 hours, RNA normalized to ecDNA copy number", "source_text": "To quantify the MYC gene expression on the ecDNAs, we ordered the RNA FISH probes conjugated with a Quasar 570 dye (Biosearch Technologies) targeting to the intronic region of human (hg19) MYC gene for detection of nascent RNA transcript. We also ordered the RNA FISH probes conjugated with a Quasar 670 dye targeting to the exonic region of human MYC gene for detection of both mature and nascent RNA transcripts. […]\nTo characterize the ecDNA hub shape and size, we employed the synthetic model—Surfaces object from Imaris (version 9.1, Bitplane) and applied a Gaussian filter (σ=1 voxel in xy) and background subtraction for optimal segmentation and quantification of ecDNA hubs. ecDNA hubs containing connected voxels were sorted by size and singleton ecDNAs were separated from ecDNA hubs (minimal two ecDNA molecules).\nTo measure the number of ecDNA or nascent transcripts, we localized the voxels corresponding to the local maximum of identified DNA or RNA FISH signal using the Imaris spots function module. We validated the accuracy of interphase ecDNA counting by comparing to quantification of ecDNA number by metaphase FISH as well as copy number estimated by whole genome sequencing FIG. 5f). […]"}, "[4]": {"test_system": "MYC mRNA in COLO320-HSR cells", "test": "MYC RNA measured by RT-qPCR in COLO320-HSR", "conditions": "500 nM, 6 hours", "experimental": "as §1, §2, §3"}, "[5]": {"test_system": "covalently-linked MYC copies in COLO320-HSR", "test": "Interphase DNA FISH of chromosomal MYC amplicon (HSR), autocorrelation g(r)", "conditions": "500 nM, 6 hours"}}, "data": [{"smiles": "Cc1sc2c(c1C)C(c1ccc(Cl)cc1)=N[C@@H](CC(=O)OC(C)(C)C)c1nnc(C)n1-2", "note": "[JQ1]", "values": [{"measurement": "MYC mRNA level", "setting": "[1]", "value": "preferentially lowered"}, {"measurement": "cell killing, COLO320-DM versus COLO320-HSR", "setting": "[2]", "value": "modest preferential killing of COLO320-DM cells over HSR cells"}, {"measurement": "reduction of MYC transcription probability per ecDNA copy", "setting": "[3]", "value": "four-fold"}, {"measurement": "MYC mRNA level", "setting": "[4]", "value": "no significant effect"}, {"measurement": "spatial distribution of covalently-linked MYC copies", "setting": "[5]", "value": "did not alter"}]}]}
